Reference: patent US20120178124A1, “STEROL SIDE CHAIN-CLEAVING ENZYME PROTEIN AND USE THEREOF” (MITSUBISHI CHEMICAL CORPORATION, priority 2009, published 2012)
Entries after “also recorded” stand apart in the source; their conditions may differ. Where two headings read alike, the source gives them in different places.

Tests used:
[1] = biological target: T1, Sphingomonas subterranea NBRC16086 P450scc CYPSS204A (CYPSS), wild type, SEQ ID NO: 2 (Novosphingobium subterraneum, UniProt A0A0B8ZS99); assay: Kinetics analysis of CYPSS with 4-cholesten-3-one (conversion to progesterone, cell-free extract)
T1 sequence (A0A0B8ZS99 1-472): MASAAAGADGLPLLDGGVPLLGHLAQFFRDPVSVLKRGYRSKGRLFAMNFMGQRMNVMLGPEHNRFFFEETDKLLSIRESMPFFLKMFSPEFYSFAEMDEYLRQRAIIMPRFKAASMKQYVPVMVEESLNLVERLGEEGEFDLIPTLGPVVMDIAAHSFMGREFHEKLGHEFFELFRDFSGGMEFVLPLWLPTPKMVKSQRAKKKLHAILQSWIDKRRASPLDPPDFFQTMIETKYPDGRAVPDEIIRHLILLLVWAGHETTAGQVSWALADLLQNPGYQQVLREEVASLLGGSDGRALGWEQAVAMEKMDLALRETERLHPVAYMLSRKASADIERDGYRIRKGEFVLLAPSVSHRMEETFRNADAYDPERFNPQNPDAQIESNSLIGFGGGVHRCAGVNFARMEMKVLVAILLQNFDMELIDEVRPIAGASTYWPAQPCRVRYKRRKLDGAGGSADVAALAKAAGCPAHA

[2] = test system: CYPSS204A; assay: Conversion reaction of substrates by Escherichia coli expression strain BP215; assay type: cell-based, Sphingomonas subterranea NBRC 16086; conditions: strain BP215, 28° C., 5 hours
Protocol: The temperature conditions applied during the PCR were 95° C./5 min, 30 cycles of (98° C./30 sec, 60° C./30 sec, and 68° C./2 min), and 68° C./10 min.
Analysis conditions: Using Chromolith speed rod RP18e (50×4.6 mm) column, 50%→100% CH3CN gradient (0 to 3 min) and 100% CH3CN (3 to 8 min) were used as a mobile phase, and detection was carried out at a flow rate of 2 ml/min using CAD™ (Charged Aerosol Detection) and MS.

[3] = test system: CYP204A1; assay: Conversion of 4-cholesten-3-one to progesterone by Bacillus megaterium cell mass expressing the CYP204A1 gene; conditions: Bacillus megaterium pXYL204CB cell suspension, 30° C., 24 hours
[4] = test system: CYP204A1; conditions: strain BP172, same reaction as Example 6 (28° C., 5 hours)
Protocol: Novosphingobium aromaticivorans (ATCC 700278) was inoculated into an L medium, and it was then cultured at 30° C. for 2 days. Thereafter, genomic DNA was extracted from the cell mass obtained in the same manner as that of Example 1. A fragment comprising a CYPSS204A1 gene and a ferredoxin gene located downstream thereof was amplified from the above-described genomic DNA by using a primer CYP-5F (SEQ ID NO: 9) and a primer CYP-6R (SEQ ID NO: 10) and also using La Taq polymerase (manufactured by Takara Bio INC.). The temperature conditions applied during this operation were 94° C./3 min, 30 cycles of (98° C./20 sec, 63° C./30 sec, and 68° C./2 min), and 72° C./5 min.
Escherichia coli BL21(DE3) was transformed with this plasmid, and the obtained cell strain was named as BP172.
The Escherichia coli expression strain BP215 was inoculated into 2 ml of an M9 mix medium (Na2HPO4: 0.68%, KH2PO4: 0.3%, NaCl: 0.05%, NH4C;: 0.01%, Casamino acid: 1%, D-Glucose: 0.4%, CaCl2: 0.1 mM, MgCl2: 1 mM, Thiamine: 0.002%, FeSO4: 0.1 mM, Carbenicillin: 0.005%), and it was then subjected to shaking culture at 30° C. for 17 hours, so as to obtain pre-culture solution. 0.25 ml of this pre-culture solution was inoculated into 25 ml of the main culture medium (Na2HPO4: 0.68%, KH2PO4: 0.3%, NaCl: 0.05%, NH4Cl: 0.01%, Casamino acid: 1%, CaCl2: 0.1 mM, MgCl2: 1 mM, Thiamine: 0.002%, FeSO4: 0.1 mM, Carbenicillin: 0.005%, Overnight Express™ solution: 7%, 5-Aminolevlic acid: 0.008%) using Overnight Express™ Autoinduction System (Novagen Cat. No. 71300-4), and it was then subjected to shaking culture at 25° C. for 24 hours. 5 ml of the obtained main culture solution was centrifuged (3500 rpm, 10 minutes) to obtain cell mass, and 1 ml of CV2 buffer (50 mM (pH) potassium phosphate buffer containing glycerol: 2%, carbenicillin: 0.005%, and isopropyl β-D-1-thiogalactopyranoside: 0.1 mM) was added to the obtained cell mass. Thereafter, 0.01 ml of the methanol solution of 1% 4-cholesten-3-one and 0.02 ml of an aqueous solution of 25% methyl-β-cyclodextrin were added to the mixed solution, and the obtained mixture was then shaken at 28° C. for 5 hours for the reaction. After completion of the reaction, 4 ml of methanol was added to the reaction solution, and they were then fully mixed. The obtained mixture was centrifuged, and the upper layer was then analyzed by HPLC.
As substrates, 4-cholesten-3-one, cholesterol, 7-dehydrocholesterol, ergosterol, 13-sitosterol, stigmasterol, campesterol, desmosterol, (20S)-20-hydroxycholest-4-en-3-one, (22R)-22-hydroxycholest-4-en-3-one, (20R,22R)-20,22-dihydroxycholest-4-en-3-one, and (20R,22S)-20,22-dihydroxycholest-4-en-3-one were used. Each substrate was subjected to the same reaction as that of Example 6, separately, and the generated product was then analyzed by HPLC.

CC(C)CCC[C@@H](C)[C@H]1CC[C@H]2[C@@H]3CCC4=CC(=O)CC[C@]4(C)[C@H]3CC[C@]12C [4-cholesten-3-one]
Vmax ([1]; 4-cholesten-3-one 0.1 to 500 μM, pH 7.5, 15° C., 60 minutes, Lineweaver-Burk plot): 78.7 mmol/min/mol | substrate inhibition ([1]; 4-cholesten-3-one, in words): hardly undergoes substrate inhibition; also recorded: substrate inhibition of CYPSS was lower than that of CYP204A1 | Vmax, times higher than that of CYP204A1 ([1]; compared with CYP204A1): approximately 1.7 times | Vmax, relative activity ([1]; relative to CYP204A1 (1.00)): 1.66 | decrease rate of the enzyme protein activity (substrate inhibition) ([1]; substrate concentration increased from 10 μM to 100 μM, pH 7.5, 15° C.): 10% | accumulated amount of side-chain cleavage product [2]: 78.0 mg/L | added substrate remained [2]: not detected | Conversion rate ([2]; to progesterone, pregnenolone or 7-dehydropregnenolone): 78% | conversion rate of 4-cholesten-3-one to progesterone [3]: 24.5% | Conversion rate [4]: 84.0% | Conversion rate ([4]; listed as 4Chol): 84%
